Test results taken from ChEMBL document CHEMBL1201862, “PubChem BioAssay data set” (2004).
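Results reflect a 48-hour exposure of cells in 96-well plates to compound at five concentrations. The concentration for 50% growth inhibition is given as GI50.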 Calls of active or inactive are those of the source. Cut-off read from the data, not from the text of the source: active = GI50 up to about 1.1 µM and inactive = higher. Non-standard residues stand in square brackets, D forms with d. Residues, ends and D or L forms follow the SMILES beside them. ΔPro = O=C(O)[CH]1C=CCN1

Tests used:
Assay in all cases: DTP human tumour cell line panel, 48 h
[1] = system: 786-0
[2] = system: A498
[3] = system: A549
[4] = system: ACHN
[5] = system: BT-549
[6] = system: CAKI-1
[7] = system: CCRF-CEM
[8] = system: COLO 205
[9] = system: DU-145
[10] = system: EKVX
[11] = system: HCC 2998
[12] = system: HCT-116
[13] = system: HCT-15
[14] = system: HL-60
[15] = system: HOP-62
[16] = system: HOP-92
[17] = system: HT-29
[18] = system: Hs-578T
[19] = system: IGROV-1
[20] = system: K562
[21] = system: KM12
[22] = system: LOX IMVI
[23] = system: M14
[24] = system: MCF7
[25] = system: MDA-MB-231
[26] = system: MDA-MB-435
[27] = system: MDA-N
[28] = system: MOLT-4
[29] = system: Malme-3M
[30] = system: NCI-H226
[31] = system: NCI-H23
[32] = system: NCI-H460
[33] = system: NCI-H522
[34] = system: NCI/ADR-RES
[35] = system: OVCAR-3
[36] = system: OVCAR-4
[37] = system: OVCAR-5
[38] = system: OVCAR-8
[39] = system: PC-3
[40] = system: RPMI-8226
[41] = system: RXF 393
[42] = system: SF-268
[43] = system: SF-295
[44] = system: SF-539
[45] = system: SK-MEL-28
[46] = system: SK-MEL-2
[47] = system: SK-MEL-5
[48] = system: SK-OV-3
[49] = system: SN12C
[50] = system: SNB-19
[51] = system: SNB-75
[52] = system: SR
[53] = system: SW-620
[54] = system: T47D
[55] = system: TK-10
[56] = system: U-251
[57] = system: UACC-257
[58] = system: UACC-62
[59] = system: UO-31
[60] = system: DMS-114
[61] = system: SNB-78

COC(=O)/C=C1\CCCN1CCc1cc2c(cc1CC#N)OCO2
GI50 [1]: 52.7 µM (inactive)
GI50 [2]: 32.7 µM (inactive)
GI50 [3]: > 100 µM (inactive)
GI50 [4]: > 100 µM (inactive)
GI50 [5]: 52.6 µM (inactive)
GI50 [6]: > 100 µM (inactive)
GI50 [7]: 42.5 µM (inactive)
GI50 [8]: 35.2 µM (inactive)
GI50 [9]: 80.4 µM (inactive)
GI50 [10]: 58.9 µM (inactive)
GI50 [11]: 28.1 µM (inactive)
GI50 [12]: 41.2 µM (inactive)
GI50 [13]: 43.2 µM
GI50 [14]: 40.7 µM (inactive)
GI50 [15]: 52.4 µM (inactive)
GI50 [16]: > 100 µM (inactive)
GI50 [17]: 32.2 µM (inactive)
GI50 [18]: > 100 µM (inactive)
GI50 [19]: > 100 µM (inactive)
GI50 [20]: 49.4 µM (inactive)
GI50 [21]: 30.7 µM (inactive)
GI50 [22]: > 100 µM (inactive)
GI50 [23]: 71.1 µM (inactive)
GI50 [24]: 32.9 µM (inactive)
GI50 [25]: 47.9 µM (inactive)
GI50 [26]: 17.3 µM (inactive)
GI50 [27]: 18.3 µM (inactive)
GI50 [28]: 34.4 µM (inactive)
GI50 [29]: > 100 µM (inactive)
GI50 [30]: 48.6 µM (inactive)
GI50 [31]: 47.2 µM (inactive)
GI50 [32]: 36 µM (inactive)
GI50 [33]: > 100 µM (inactive)
GI50 [34]: 69.8 µM (inactive)
GI50 [35]: 22.6 µM (inactive)
GI50 [36]: 51.3 µM (inactive)
GI50 [37]: > 100 µM (inactive)
GI50 [38]: > 100 µM (inactive)
GI50 [39]: > 100 µM (inactive)
GI50 [40]: 37 µM (inactive)
GI50 [41]: 31.7 µM (inactive)
GI50 [42]: > 100 µM (inactive)
GI50 [43]: 38.5 µM (inactive)
GI50 [44]: 46.8 µM (inactive)
GI50 [45]: 84.1 µM (inactive)
GI50 [46]: 38.4 µM (inactive)
GI50 [47]: 25.6 µM (inactive)
GI50 [48]: 34.9 µM (inactive)
GI50 [49]: 50 µM (inactive)
GI50 [50]: 60 µM (inactive)
GI50 [51]: 25.1 µM (inactive)
GI50 [52]: 16.5 µM (inactive)
GI50 [53]: 49.7 µM (inactive)
GI50 [54]: 38.7 µM (inactive)
GI50 [55]: > 100 µM (inactive)
GI50 [56]: 39.7 µM (inactive)
GI50 [57]: 59.4 µM (inactive)
GI50 [58]: 31.4 µM (inactive)
GI50 [59]: 23.8 µM (inactive)

COc1cc(Cc2c(C)cc(OC)c3[nH]c4ccccc4c23)cc2c1[nH]c1ccccc12
GI50 [60]: 10.5 µM (inactive)
GI50 [35]: 5.42 µM (inactive)
GI50 [37]: 4.99 µM (inactive)
GI50 [38]: 4.57 µM (inactive)
GI50 [40]: 9.95 µM (inactive)
GI50 [50]: 8.85 µM (inactive)
GI50 [61]: 5.79 µM (inactive)

O=C(O)C1C=CCN1C(=O)C1C=CCN1C(=O)C1C=CCN1 (stereo not given) (H-[ΔPro]-[ΔPro]-[ΔPro]-OH; configuration not given here)
GI50 [1]: > 100 µM (inactive)
GI50 [2]: > 100 µM (inactive)
GI50 [3]: > 100 µM (inactive)
GI50 [4]: > 100 µM (inactive)
GI50 [5]: > 100 µM (inactive)
GI50 [6]: > 100 µM (inactive)
GI50 [7]: > 100 µM (inactive)
GI50 [8]: > 100 µM (inactive)
GI50 [9]: > 100 µM (inactive)
GI50 [10]: > 100 µM (inactive)
GI50 [11]: > 100 µM (inactive)
GI50 [12]: > 100 µM (inactive)
GI50 [13]: > 100 µM
GI50 [14]: > 100 µM (inactive)
GI50 [15]: > 100 µM (inactive)
GI50 [16]: > 100 µM (inactive)
GI50 [17]: > 100 µM (inactive)
GI50 [18]: > 100 µM (inactive)
GI50 [19]: > 100 µM (inactive)
GI50 [20]: > 100 µM (inactive)
GI50 [21]: > 100 µM (inactive)
GI50 [22]: > 100 µM (inactive)
GI50 [23]: > 100 µM (inactive)
GI50 [24]: > 100 µM (inactive)
GI50 [25]: > 100 µM (inactive)
GI50 [26]: > 100 µM (inactive)
GI50 [27]: > 100 µM (inactive)
GI50 [28]: > 100 µM (inactive)
GI50 [29]: > 100 µM (inactive)
GI50 [30]: 33.5 µM (inactive)
GI50 [31]: > 100 µM (inactive)
GI50 [32]: > 100 µM (inactive)
GI50 [33]: > 100 µM (inactive)
GI50 [34]: > 100 µM (inactive)
GI50 [35]: > 100 µM (inactive)
GI50 [36]: > 100 µM (inactive)
GI50 [37]: > 100 µM (inactive)
GI50 [38]: > 100 µM (inactive)
GI50 [39]: > 100 µM (inactive)
GI50 [40]: > 100 µM (inactive)
GI50 [41]: 4.21 µM (inactive)
GI50 [42]: > 100 µM (inactive)
GI50 [43]: > 100 µM (inactive)
GI50 [44]: > 100 µM (inactive)
GI50 [45]: > 100 µM (inactive)
GI50 [46]: > 100 µM (inactive)
GI50 [47]: > 100 µM (inactive)
GI50 [48]: > 100 µM (inactive)
GI50 [49]: > 100 µM (inactive)
GI50 [50]: > 100 µM (inactive)
GI50 [51]: > 100 µM (inactive)
GI50 [52]: > 100 µM (inactive)
GI50 [53]: > 100 µM (inactive)
GI50 [54]: > 100 µM (inactive)
GI50 [55]: 30.1 µM (inactive)
GI50 [56]: > 100 µM (inactive)
GI50 [57]: > 100 µM (inactive)
GI50 [58]: > 100 µM (inactive)
GI50 [59]: > 100 µM (inactive)
